Assay results as given in ChEMBL document CHEMBL3885881, “DrugMatrix”.

Species: Rattus norvegicus
Assay: DrugMatrix - Regimen: Daily Repeat
Assay type: toxicity, organism-based, Sprague-Dawley
Parameters: regimen Daily Repeat, gender Male, age 6-8 weeks
Settings: in vivo, po, route oral GAVAGE, vehicle 100 % WATER; for ABSOLUTE BASOPHIL / ABSOLUTE EOSINOPHIL / ABSOLUTE LYMPHOCYTE / ABSOLUTE MONOCYTE / ABSOLUTE SEGMENTED NEUTROPHIL / BASOPHIL / EOSINOPHIL / ERYTHROCYTE COUNT / HEMATOCRIT / HEMOGLOBIN / LEUKOCYTE COUNT / LYMPHOCYTE / MEAN CORPUSCULAR HEMOGLOBIN / MEAN CORPUSCULAR HEMOGLOBIN CONCENTRATION / MEAN CORPUSCULAR VOLUME / MONOCYTE / NEUTROPHIL / NUCLEATED RED BLOOD CELLS / PLATELET COUNT: tissue Blood; for ALANINE AMINOTRANSFERASE / ALKALINE PHOSPHATASE / ASPARTATE AMINOTRANSFERASE / BLOOD UREA NITROGEN / CARBON DIOXIDE / CHLORIDE / CHOLESTEROL / CREATINE PHOSPHOKINASE / CREATININE / GLUCOSE / LACTATE DEHYDROGENASE / LIPASE / PHOSPHORUS / POTASSIUM / SODIUM / TOTAL BILIRUBIN / TOTAL PROTEIN / URIC ACID: tissue Plasma
[1] = 0 mg/kg, 72 h, dose level Control, time 3 day
[2] = 0 mg/kg, 120 h, dose level Control, time 5 day
[3] = […], 72 h, dose 7.5 mg/Kg, dose level Low, time 3 day
[4] = […], 120 h, dose 7.5 mg/Kg, dose level Low, time 5 day

CNC1=Nc2ccc(Cl)cc2C(c2ccccc2)=[N+]([O-])C1 [CHLORDIAZEPOXIDE]
ABSOLUTE BASOPHIL [1]: 0 CELLS/uL
ABSOLUTE EOSINOPHIL [1]: 40 CELLS/uL
ABSOLUTE LYMPHOCYTE [1]: 13599.5 CELLS/uL
ABSOLUTE MONOCYTE [1]: 239.33 CELLS/uL
ABSOLUTE SEGMENTED NEUTROPHIL [1]: 1021.17 CELLS/uL
BASOPHIL [1]: 0%
EOSINOPHIL [1]: 0.33%
ERYTHROCYTE COUNT [1]: 5.71 x10E6/uL
HEMATOCRIT [1]: 36.35%
HEMOGLOBIN [1]: 14.05 G/DL
LEUKOCYTE COUNT [1]: 14.9 x10E3/uL
LYMPHOCYTE [1]: 91%
MEAN CORPUSCULAR HEMOGLOBIN [1]: 24.62 pg
MEAN CORPUSCULAR HEMOGLOBIN CONCENTRATION [1]: 38.65 G/DL
MEAN CORPUSCULAR VOLUME [1]: 63.7 fL
MONOCYTE [1]: 1.5%
NEUTROPHIL [1]: 7.17%
NUCLEATED RED BLOOD CELLS [1]: 0.33 /100WBC
PLATELET COUNT [1]: 1225.5 x10E3/uL
ALANINE AMINOTRANSFERASE [1]: 48.5 u/L
ALKALINE PHOSPHATASE [1]: 390.83 u/L
ASPARTATE AMINOTRANSFERASE [1]: 89 u/L
BLOOD UREA NITROGEN [1]: 14.83 mg/dL
CARBON DIOXIDE [1]: 24.83 mmol/L
CHLORIDE [1]: 100.83 MEQ/L
CHOLESTEROL [1]: 72.5 mg/dL
CREATINE PHOSPHOKINASE [1]: 503 u/L
CREATININE [1]: 0.2 mg/dL
GLUCOSE [1]: 163 mg/dL
LACTATE DEHYDROGENASE [1]: 316.83 u/L
LIPASE [1]: 9.83 u/L
PHOSPHORUS [1]: 11.57 mg/dL
POTASSIUM [1]: 6.16 MEQ/L
SODIUM [1]: 142.62 MEQ/L
TOTAL BILIRUBIN [1]: 0.2 mg/dL
TOTAL PROTEIN [1]: 5.8 G/DL
URIC ACID [1]: 1.65 mg/dL
ABSOLUTE BASOPHIL [2]: 0 CELLS/uL
ABSOLUTE EOSINOPHIL [2]: 21 CELLS/uL
ABSOLUTE LYMPHOCYTE [2]: 14288.5 CELLS/uL
ABSOLUTE MONOCYTE [2]: 205.33 CELLS/uL
ABSOLUTE SEGMENTED NEUTROPHIL [2]: 968.5 CELLS/uL
BASOPHIL [2]: 0%
EOSINOPHIL [2]: 0.17%
ERYTHROCYTE COUNT [2]: 5.83 x10E6/uL
HEMATOCRIT [2]: 36.53%
HEMOGLOBIN [2]: 14.4 G/DL
LEUKOCYTE COUNT [2]: 15.48 x10E3/uL
LYMPHOCYTE [2]: 92%
MEAN CORPUSCULAR HEMOGLOBIN [2]: 24.72 pg
MEAN CORPUSCULAR HEMOGLOBIN CONCENTRATION [2]: 39.43 G/DL
MEAN CORPUSCULAR VOLUME [2]: 62.68 fL
MONOCYTE [2]: 1.33%
NEUTROPHIL [2]: 6.5%
NUCLEATED RED BLOOD CELLS [2]: 0.17 /100WBC
PLATELET COUNT [2]: 1280.5 x10E3/uL
ALANINE AMINOTRANSFERASE [2]: 50 u/L
ALKALINE PHOSPHATASE [2]: 380.17 u/L
ASPARTATE AMINOTRANSFERASE [2]: 82.67 u/L
BLOOD UREA NITROGEN [2]: 15.33 mg/dL
CARBON DIOXIDE [2]: 27.17 mmol/L
CHLORIDE [2]: 100.33 MEQ/L
CHOLESTEROL [2]: 60.67 mg/dL
CREATINE PHOSPHOKINASE [2]: 441.5 u/L
CREATININE [2]: 0.16 mg/dL
GLUCOSE [2]: 146 mg/dL
LACTATE DEHYDROGENASE [2]: 189.33 u/L
LIPASE [2]: 9.17 u/L
PHOSPHORUS [2]: 11.67 mg/dL
POTASSIUM [2]: 6.86 MEQ/L
SODIUM [2]: 142.33 MEQ/L
TOTAL BILIRUBIN [2]: 0.2 mg/dL
TOTAL PROTEIN [2]: 6.12 G/DL
URIC ACID [2]: 1.82 mg/dL
ABSOLUTE BASOPHIL [3]: 0 CELLS/uL
ABSOLUTE EOSINOPHIL [3]: 54 CELLS/uL
ABSOLUTE LYMPHOCYTE [3]: 12748.67 CELLS/uL
ABSOLUTE MONOCYTE [3]: 258 CELLS/uL
ABSOLUTE SEGMENTED NEUTROPHIL [3]: 2072.67 CELLS/uL
BASOPHIL [3]: 0%
EOSINOPHIL [3]: 0.33%
ERYTHROCYTE COUNT [3]: 5.45 x10E6/uL
HEMATOCRIT [3]: 34.1%
HEMOGLOBIN [3]: 13.23 G/DL
LEUKOCYTE COUNT [3]: 15.13 x10E3/uL
LYMPHOCYTE [3]: 84.33%
MEAN CORPUSCULAR HEMOGLOBIN [3]: 24.3 pg
MEAN CORPUSCULAR HEMOGLOBIN CONCENTRATION [3]: 38.8 G/DL
MEAN CORPUSCULAR VOLUME [3]: 62.57 fL
MONOCYTE [3]: 1.67%
NEUTROPHIL [3]: 13.67%
NUCLEATED RED BLOOD CELLS [3]: 0.33 /100WBC
PLATELET COUNT [3]: 1319 x10E3/uL
ALANINE AMINOTRANSFERASE [3]: 50.33 u/L
ALKALINE PHOSPHATASE [3]: 379.67 u/L
ASPARTATE AMINOTRANSFERASE [3]: 95 u/L
BLOOD UREA NITROGEN [3]: 15.67 mg/dL
CARBON DIOXIDE [3]: 26 mmol/L
CHLORIDE [3]: 101 MEQ/L
CHOLESTEROL [3]: 60.33 mg/dL
CREATINE PHOSPHOKINASE [3]: 360.33 u/L
CREATININE [3]: 0.17 mg/dL
GLUCOSE [3]: 162.33 mg/dL
LACTATE DEHYDROGENASE [3]: 326.33 u/L
LIPASE [3]: 8.67 u/L
PHOSPHORUS [3]: 12.63 mg/dL
POTASSIUM [3]: 7.24 MEQ/L
SODIUM [3]: 142.77 MEQ/L
TOTAL BILIRUBIN [3]: 0.27 mg/dL
TOTAL PROTEIN [3]: 5.87 G/DL
URIC ACID [3]: 2 mg/dL
ABSOLUTE BASOPHIL [4]: 0 CELLS/uL
ABSOLUTE EOSINOPHIL [4]: 0 CELLS/uL
ABSOLUTE LYMPHOCYTE [4]: 13599 CELLS/uL
ABSOLUTE MONOCYTE [4]: 187.67 CELLS/uL
ABSOLUTE SEGMENTED NEUTROPHIL [4]: 813.33 CELLS/uL
BASOPHIL [4]: 0%
EOSINOPHIL [4]: 0%
ERYTHROCYTE COUNT [4]: 5.46 x10E6/uL
HEMATOCRIT [4]: 34.73%
HEMOGLOBIN [4]: 13.83 G/DL
LEUKOCYTE COUNT [4]: 14.6 x10E3/uL
LYMPHOCYTE [4]: 93%
MEAN CORPUSCULAR HEMOGLOBIN [4]: 25.37 pg
MEAN CORPUSCULAR HEMOGLOBIN CONCENTRATION [4]: 39.83 G/DL
MEAN CORPUSCULAR VOLUME [4]: 63.7 fL
MONOCYTE [4]: 1.33%
NEUTROPHIL [4]: 5.67%
NUCLEATED RED BLOOD CELLS [4]: 0 /100WBC
PLATELET COUNT [4]: 1349.33 x10E3/uL
ALKALINE PHOSPHATASE [4]: 303.33 u/L
ASPARTATE AMINOTRANSFERASE [4]: 68.67 u/L
BLOOD UREA NITROGEN [4]: 17.67 mg/dL
CARBON DIOXIDE [4]: 27.33 mmol/L
CHLORIDE [4]: 101.33 MEQ/L
CHOLESTEROL [4]: 63.67 mg/dL
CREATINE PHOSPHOKINASE [4]: 199.33 u/L
CREATININE [4]: 0.15 mg/dL
GLUCOSE [4]: 159.33 mg/dL
LACTATE DEHYDROGENASE [4]: 110 u/L
LIPASE [4]: 8.67 u/L
PHOSPHORUS [4]: 11.87 mg/dL
POTASSIUM [4]: 6.75 MEQ/L
SODIUM [4]: 144.03 MEQ/L
TOTAL BILIRUBIN [4]: 0.23 mg/dL
TOTAL PROTEIN [4]: 5.83 G/DL
URIC ACID [4]: 1.47 mg/dL
